In PMC2693028 (ChemMedChem, 2008):
Converted amounts (≈) assume the structure as drawn. “And” between values parts separate entries of the source, which are not always exact repeats. Equal values may be shown once. Read-outs that look alike come from different tables or passages of the source.

Key:
[1] = target: Enoyl reducase (ENR) from Bacillus anthracis (BaENR) (Bacillus anthracis, UniProt A0A6L8PBX8); assay: biochemical; settings: for inhibition at 1 µM: read-out: % inhibition at 1μM
ΔANR B. anthracis = assay: microbe, parasite or virus in culture; assay type: cell-based, Bacillus anthracis
[2] = tested on: vancomycin–resistant Enterococcus (VRE) (ATCC strain 51299); assay: microbe, parasite or virus in culture; assay type: cell-based; settings: Enterococcus, ATCC51299|VRE
[3] = tested on: Escherchia coli (ATCC strain 25922); assay: microbe, parasite or virus in culture; assay type: cell-based; settings: Escherichia coli, ATCC25922
[4] = tested on: Listeria monocytogenes (10403S); assay: microbe, parasite or virus in culture; assay type: cell-based; settings: Listeria monocytogenes
[5] = tested on: Enterococcus fecalis (ATCC strain 29212); assay: microbe, parasite or virus in culture; assay type: cell-based; settings: Enterococcus, ATCC29212
[6] = tested on: methicillin–resistant Staphylococcus aureus (ATCC strain 43300); assay: microbe, parasite or virus in culture; assay type: cell-based; settings: Staphylococcus aureus, ATCC43300|MRSA
[7] = tested on: Klebsiella pneumoniae (ATCC strain 700603); assay: microbe, parasite or virus in culture; assay type: cell-based; settings: Klebsiella pneumoniae, ATCC700603
[8] = tested on: Staphylococcus aureus (ATCC strain 29213); assay: microbe, parasite or virus in culture; assay type: cell-based; settings: ATCC29213|MSSA
[9] = tested on: Pseudomonas aeruginosa (ATCC strain 27853); assay: microbe, parasite or virus in culture; assay type: cell-based; settings: ATCC27853
[10] = tested on: Sterne strain B. anthracis; assay: microbe, parasite or virus in culture; assay type: cell-based, Bacillus anthracis; settings: Bacillus anthracis

Enoyl reducase (ENR) from Bacillus anthracis (BaENR), sequence (A0A6L8PBX8 1-256): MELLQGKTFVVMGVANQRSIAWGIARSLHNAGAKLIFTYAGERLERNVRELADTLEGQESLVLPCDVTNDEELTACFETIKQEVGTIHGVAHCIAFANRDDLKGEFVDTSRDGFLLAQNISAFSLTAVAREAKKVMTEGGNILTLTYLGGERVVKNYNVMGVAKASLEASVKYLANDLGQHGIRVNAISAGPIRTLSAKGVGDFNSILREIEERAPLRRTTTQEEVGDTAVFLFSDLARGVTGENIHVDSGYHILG

Compound | MIC (ΔANR B. anthracis; Bacillus anthracis) [µg/mL] | IC50 ([1]; IC50) | inhibition at 1 µM [1] [%] | other results
3-[3-(2-Hydroxy-4-propylphenoxy)phenyl]propionic acid [Compound 50] | – | – | – | % inhibition at 1μM [1]: 17.9%; MIC (ΔANR B. anthracis): 14.9 µg/mL
O=C(O)c1cn(C2CC2)c2cc(N3CCNCC3)c(F)cc2c1=O [Cipro, reference compound] | 0.1 (≈ 0.302 µM) | – | – | MIC [2]: 0.6 ± 0.2 µg/mL (≈ 1.81 µM); MIC [3]: 0.1 µg/mL (≈ 0.302 µM); MIC [4]: 0.9 ± 0.3 µg/mL (≈ 2.72 µM); MIC [5]: 0.7 ± 0.1 µg/mL (≈ 2.11 µM); MIC [6]: 0.5 ± 0.2 µg/mL (≈ 1.51 µM); MIC [7]: 0.5 ± 0.1 µg/mL (≈ 1.51 µM); MIC [8]: 0.4 µg/mL (≈ 1.21 µM); MIC [9]: 0.3 ± 0.1 µg/mL (≈ 0.905 µM); MIC [10]: 0.1 µg/mL (≈ 0.302 µM)
Oc1ccc(Oc2ccccc2)c(O)c1 [Compound 1, 4-Phenoxybenzene-1,3-diol] | 64 (≈ 317 µM) | 6.3 ± 0.4 µM | – | –
O=[N+]([O-])c1ccc(Oc2ccccc2)c(O)c1 [Compound 2, 5-Nitro-2-phenoxyphenol] | 5.8 (≈ 25.1 µM) | > 50 µM | – | –
Oc1ccc(Oc2ccc(Cl)cc2O)cc1 [Compound 3, 5-Chloro-2-(4-hydroxyphenoxy)phenol] | > 64 | – | 2.6 | –
O=[N+]([O-])c1ccc(Oc2ccc(Cl)cc2O)cc1 [Compound 4, 5-Chloro-2-(4-nitrophenoxy)phenol] | 3.3 (≈ 12.4 µM) | – | – | –
O=[N+]([O-])c1ccccc1Oc1ccc(Cl)cc1O [Compound 5, 5-Chloro-2-(2-nitrophenoxy)phenol] | 13.3 (≈ 50.1 µM) | 7.7 ± 0.7 µM | – | –
Oc1cc(Cl)ccc1Oc1ccc(-c2ccccc2)cc1 [Compound 7, 2-(Biphenyl-4-yloxy)-5-chlorophenol] | 1.9 (≈ 6.4 µM) | > 6.25 µM | – | –
CCCc1ccc(Oc2ccc([N+](=O)[O-])cc2)c(O)c1 [Compound 8, 2-(4-Nitrophenoxy)-5-propylphenol] | 3.4 (≈ 12.4 µM) | 1.1 ± 0.1 µM | – | –
CCCc1ccc(Oc2cccc([N+](=O)[O-])c2)c(O)c1 [Compound 9, 2-(3-Nitrophenoxy)-5-propylphenol] | 1.7 (≈ 6.22 µM) | > 0.8 µM | – | –
CCCc1ccc(Oc2ccc([N+](=O)[O-])cc2[N+](=O)[O-])c(O)c1 [Compound 10, 2-(2,4-Dinitrophenoxy)-5-propylphenol] | 4 (≈ 12.6 µM) | 3.6 ± 0.8 µM | – | –
CCCc1ccc(Oc2ccc(C#N)cc2Cl)c(O)c1 [Compound 12, 3-Chloro-4-(2-hydroxy-4-propylphenoxy)benzonitrile] | 1.8 (≈ 6.26 µM) | > 0.8 µM | – | –
CCCc1ccc(Oc2cccc(CCO)c2)c(O)c1 [Compound 13, 2-[3-(2-Hydroxy-ethyl)phenoxy]-5-propylphenol] | 1.7 (≈ 6.24 µM) | – | – | IC50 [1]: 6 ± 1.5 µM
O=C(O)c1cc(Cl)ccc1Oc1ccccc1 [Compound 14, 5-Chloro-2-phenoxybenzoic acid] | – | – | 0 | –
CCCc1ccc(Oc2ccc(C(N)=O)cc2Cl)c(O)c1 [Compound 15, 3-Chloro-4-(2-hydroxy-4-propylphenoxy)benzamide] | 30.6 (≈ 100 µM) | 1.1 ± 0.1 µM | – | –
OCc1cc(Cl)ccc1Oc1ccccc1 [Compound 16, 5-Chloro-2-phenoxyphenylmethanol] | – | – | 1.8 | –
NC(=O)c1cc(Cl)ccc1Oc1ccccc1 [Compound 17, 5-Chloro-2-phenoxybenzamide] | – | – | 0 | –
CC(=O)Nc1ccc(Oc2ccc(Cl)cc2O)cc1 [Compound 18, N-[4-(4-Chloro-2-hydroxy-phenoxy)phenyl]acetamide] | 111 (≈ 400 µM) | – | 1.6 | –
CC(=O)Nc1ccccc1Oc1ccc(Cl)cc1O [Compound 19, N-[2-(4-Chloro-2-hydroxy-phenoxy)phenyl]acetamide] | 111 (≈ 400 µM) | – | 0 | –
Nc1ccc(Oc2ccc(Cl)cc2O)cc1 [Compound 20, 2-(4-Aminophenoxy)-5-chlorophenol] | 12 (≈ 50.9 µM) | 7 µM and 7.1 µM | – | –
CCCc1ccc(Oc2ccc(N)cc2)c(O)c1 [Compound 21, 2-(4-Aminophenoxy)-5-propylphenol] | > 97 | 8.8 ± 1 µM | – | –
Cc1ccc(S(=O)(=O)Nc2ccc(Oc3ccc(Cl)cc3O)cc2)cc1 [Compound 22, 4-(4-Chloro-2-hydroxyphenoxy)-1-(4 methylphenylsulphonamido) benzene] | 4.9 (≈ 12.6 µM) | > 12 µM | – | –
CC(=O)Nc1ccc(Oc2ccc(Cl)cc2O)cn1 [Compound 24, N-[5-(4-Chloro-2-hydroxyphenoxy)-pyridin-2-yl]acetamide] | > 112 | 4.1 µM | – | –
OCC(O)Cc1ccc(Oc2ccccc2)c(O)c1 (stereo not shown) [Compound 26, 3-(3-Hydroxy-4-phenoxyphenyl)propane-1,2-diol] | > 104 | – | 9.8 | –

Compound | MIC (ΔANR B. anthracis; Bacillus anthracis) [µg/mL] | IC50 ([1]; IC50) | inhibition at 1 µM [1] [%] | other results
CCCc1ccc(Oc2ccccc2)c(O)c1 [Compound 27, 2-Phenoxy-5-propylphenol] | 22.8 (≈ 99.9 µM) | > 0.8 µM | – | –
OCc1ccc(Oc2ccccc2)c(O)c1 [Compound 28, 5-Hydroxymethyl-2-phenoxyphenol] | 43 (≈ 199 µM) | – | 5 | –
CCCC(C)NCc1ccc(Oc2ccccc2)c(O)c1 (stereo not shown) [Compound 29, 5-[(1-Methyl-butylamino)methyl]-2-phenoxyphenol] | > 109 | – | 0 | –
Oc1cc(CN2CCCCC2)ccc1Oc1ccccc1 [Compound 30, 2-Phenoxy-5-piperidin-1-ylmethylphenol] | > 113 | – | 0 | –
Oc1cc(CNCc2ccccc2)ccc1Oc1ccccc1 [Compound 31, 5-(Benzylaminomethyl)-2-phenoxyphenol] | > 122 | – | 7.9 | –
Oc1cc(Cl)ccc1Oc1ccc(Oc2ccc(Cl)cc2O)cc1 [Compound 32, 2-[4-(2-Hydroxy-4-Chlorophenoxy)phenoxy]-5-chlorophenol] | > 145 | – | 15.5 | –
Oc1cc(Cl)ccc1Oc1cccc(Oc2ccc(Cl)cc2O)c1 [Compound 33, 2-[3-(2-Hydroxy-4-chlorophenoxy)phenoxy]-5-chlorophenol] | 2.3 (≈ 6.33 µM) | – | 9.9 | –
CCCc1ccc(Oc2cccc(Oc3ccc(CCC)cc3O)c2)c(O)c1 [Compound 34, 2-[3-(2-Hydroxy-4-propylphenoxy)phenoxy]-5-Propylphenol] | 1.2 (≈ 3.17 µM) | – | 20.6 | –
CCCc1ccc(Oc2ccc(Oc3ccc(CCC)cc3O)cc2)c(O)c1 [Compound 35, 2-[4-(2-Hydroxy-4-propylphenoxy)phenoxy]-5-propylphenol] | > 151 | – | 10 | –
CCCc1ccc(Oc2cccc(-c3ccccc3)c2)c(O)c1 [Compound 36, 2-(Biphenyl-3-yloxy)-5-propylphenol] | 1.9 (≈ 6.24 µM) | – | – | IC50 [1]: 0.5 ± 0.1 µM
CCCc1ccc(Oc2cccc(C(=O)OC)c2)c(O)c1 [Compound 37, 3-(2-Hydroxy-4-propylphenoxy)benzoic acid methyl ester] | 3.6 (≈ 12.6 µM) | 2 ± 0.3 µM | – | –
CCCc1ccc(Oc2cccc(C(=O)O)c2)c(O)c1 [Compound 39, 3-(2-Hydroxy-4-propylphenoxy)benzoic acid] | 6.8 (≈ 25 µM) | – | 9.2 | –
CCCc1ccc(Oc2ccc(C(C)=O)cc2)c(O)c1 [Compound 40, 1-[4-(2-Hydroxy-4-propylphenoxy)phenyl]ethanone] | 13.5 (≈ 49.9 µM) | 0.8 ± 0.1 µM | – | –
CCCc1ccc(Oc2ccc(SC)cc2)c(O)c1 [Compound 41, 2-(4-Methylsulfanylphenoxy)-5-propylphenol] | 13.5 (≈ 49.2 µM) | 0.6 µM | – | –
CCCc1ccc(Oc2ccc(C(C)O)cc2)c(O)c1 (stereo not shown) [Compound 42, 2-[4-(1-Hydroxyethyl)phenoxy]-5-propylphenol] | 54.5 (≈ 200 µM) | – | 17.1 | –
CCCc1ccc(Oc2ccc([S+](C)[O-])cc2)c(O)c1 (stereo not shown) [Compound 43, 2-(4-Methanesulfinylphenoxy)-5-propylphenol] | 116 (≈ 399 µM) | 3.6 ± 0.3 µM | – | –
CCCc1ccc(Oc2ccc(S(C)(=O)=O)cc2)c(O)c1 [Compound 44, 2-(4-Methanesulfonylphenoxy)-5-propylphenol] | 61.3 (≈ 200 µM) | 2.2 ± 0.3 µM | – | –
CCCc1ccc(Oc2cccc(N(C)C)c2)c(O)c1 [Compound 45, 2-(3-Dimethylaminophenoxy)-5-propylphenol] | 13.6 (≈ 50.1 µM) | – | 12.6 | –
CCCc1ccc(Oc2cccc(C(F)(F)F)c2)c(O)c1 [Compound 46, 5-Propyl-2-(3-trifluoromethylphenoxy)phenol] | 7.4 (≈ 25 µM) | – | – | IC50 [1]: 1.24 µM
CCCc1ccc(Oc2cccc(C=CC(=O)OC)c2)c(O)c1 [Compound 48, 3-[3-(2-Hydroxy-4-propylphenoxy)phenyl]acrylic acid methyl ester] | 2 (≈ 6.4 µM) | > 6.25 µM | – | –
CCCc1ccc(Oc2cccc(CCC(=O)OC)c2)c(O)c1 [Compound 49, 3-[3-(2-Hydroxy-4-propylphenoxy)phenyl]propionic acid methyl ester] | 7.9 (≈ 25.1 µM) | 7.5 ± 1.9 µM | – | –
CCCc1ccc(Oc2cccc(CCC(=O)O)c2)c(O)c1 [Compound 51, 3-[3-(2-Hydroxy-4-propylphenoxy)phenyl]propionic acid] | 60.1 (≈ 200 µM) | – | 17.6 | –
Clc1ccc(Oc2ccc(Cl)cc2Oc2cccnc2)c(Cl)c1 [Compound 52, 3-[5-Chloro-2-(2,4-dichlorophenoxy)phenoxy]pyridine] | – | – | 0.5 | –
